In this assay the test system is Rat Calvarial Osteoblasts (RCOs). The experiment in a line: ALP assay (osteoblast differentiation) in rat calvarial osteoblasts. The note with it: for Activity in ALP Assay (Positive/Negative) / Effect on ALP activity compared to the control (vehicle): 48 h; for EC50: Rattus norvegicus, Calvarial osteoblast, 48 h in osteoblast differentiation media. The class given is cell-based. As to the method:
Sequential digestion was performed to isolate calvarial osteoblast cells from neonatal rat pups. Briefly, calvariae were harvested from ten to twelve 1–2-day old rat pups, cleaned, and subjected to five sequential enzymatic digestions (0.1% dispase and 0.1% collagenase I) of 10–15 min each, followed by culturing of the harvested cells in α-MEM supplemented with 10% FBS [22].
RCOs were seeded in 24-well plates (1 × 10^4 cells/well), and the cells were treated for 48 h in osteoblast differentiation media (α-MEM supplemented with 10 mM β-glycerophosphate and 50 μg/mL ascorbic acid) with the imidazole group of chemicals (10^−11 M–10^−6 M).
A total of 2 mg/mL of para-Nitrophenyl phosphate in diethanolamine buffer was used to measure the ALP activity at a 405 nm wavelength.

Data on five compounds can be found in publication PMC11274654 (Biomedicines, 2024).

Bounds are passed on as bounds.

In general, EC50 refers to the midpoint of the concentration-response curve. As for `O=C(Cn1ccnc1[N+](=O)[O-])NCCO` [Etanidazole], the “Activity in ALP Assay (Positive/Negative)” value was “Positive”, the “Effect on ALP activity compared to the control (vehicle)” value is “significantly increased” and a half-maximal response (EC50) required 0.4 µM.
On to `Cc1ncc([N+](=O)[O-])n1CC(O)CCl` (stereo not drawn) [Ornidazole], for which the “Activity in ALP Assay (Positive/Negative)” value is recorded as “Negative”, the “Effect on ALP activity compared to the control (vehicle)” value is “no effect” and the EC50 is over 10 µM.
With `Cn1c([N+](=O)[O-])cnc1COC(N)=O` [Ronidazole], the “Activity in ALP Assay (Positive/Negative)” value is given as “Negative”, the “Effect on ALP activity compared to the control (vehicle)” value is “no effect” and the EC50 is over 10 µM.
As to `Cc1ncc([N+](=O)[O-])n1CC(C)O` (stereo not drawn) [Secnidazole], the “Activity in ALP Assay (Positive/Negative)” value is “Negative”, the “Effect on ALP activity compared to the control (vehicle)” value is reported as “no effect” and the EC50 was over 10 µM.
In the case of `CCS(=O)(=O)CCn1c([N+](=O)[O-])cnc1C` [Tinidazole], the “Activity in ALP Assay (Positive/Negative)” value is recorded as “Negative”, the “Effect on ALP activity compared to the control (vehicle)” value was “no effect” and the EC50 was over 10 µM.
